Measured values from patent US10045529B2, “Quat cleaner with glycerin ether ethoxylates” (Ecolab USA Inc., priority 2012, dated 2018).

Tests used:
[1] = Cloud point of solfactants in various solutions; assay type: physicochemical
Source text: Various 2-Ethyl Hexanol Glycerin Ether Ethoxylate solfactants were produced using ethoxylation by a KOH Catalyst.
Further the cloud point data for the solfactants in various solutions is shown. The cloud point temperatures show the temperature above which a surfactant-rich phase separates from an aqueous solution. There is a clear relationship between the cloud point and the average EO content of the glycerin ether ethoxylate; as the ethylene oxide content of the solfactant increases, the cloud point and water solubility increase. As the carbon number on the molecule increases, a greater number of moles of ethylene oxide are required to be added to the molecule to retain the same cloud point.

[2] = Glewwe foam meter foam height test; assay type: physicochemical; settings: 50 ppm; for OBSERVATIONS (foam stability after pump stopped): after 5 minutes pump stopped; for Foam Height (in) @ 1 MIN / Foam Height (in) @ 5 MIN: city water 17 gpg, 140° F., 6 psi; for Foam Height (in) @ 1 MIN: 1 minute
Source text: Foam testing was completed for the ethoxylated glycerine ether solfactants in comparison to commercially-available ethoxylated alcohols using a Glewwe foam meter. A Glewwe foam meter provides a dynamic foam test rather than a static test, which is considered more appropriate for simulation of industrial conditions. The equipment and general procedure for the Glewwe form test is described in U.S. Pat. Nos. 3,899,387 and 5,447,648, which are herein incorporated by reference in its entirety. The foam meter itself consists of a thermostated reservoir and a pump to recirculate the aqueous medium with foaming tendencies. The foam developed by the action of the aqueous stream impinging on the surface in the reservoir causes foam formation.
The foam heights of the tested compositions were determined using the following method. First 3000 mL of city water (e.g. 17 gpg) was filled into the Glewwe cylinder. The pump was turned on, pressure adjusted to 6 psi, and heated water to 140° F. The commercially available surfactant (or the solfactant according to the invention) was added at 50 ppm in the cylinder and the timer was started. Foam height was recorded at 1 minute and 5 minutes. After 5 minutes the pump was stopped and foam stability characteristics were observed. The cylinder was then drained, rinsed, and the methods repeated.

[3] = Tergotometer detergency test on EMPA soiled swatches
Procedure: Laundry detergent compositions using 500 ppm sodium hydroxide (e.g. caustic) and the indicated conventional Surfonic® surfactant or the glycerin ether ethoxylate solfactant according to the invention were evaluated. A tergotometer test procedure was employed to measure detergency of test compositions according to the invention. A tergotometer along with 500 mL pots and water bath were employed. First, unwashed swatches from the lot numbers to be used in the test are read on the Konica Minolta Spectrophotometer model CM-3600d to establish the average initial (before washing) L value. A sampling of each swatch type is used. The desired wash temperature is programmed into the Tergotometer and its water bath is allowed to heat up to that temperature. 500 mL of the desired water type is added to each Tergotometer pot and allowed to equilibrate to the desired temperature.
The following standard, commercially available (EMPA) soiled swatches were used for baseline testing in the Examples, as shown in Table 9.
The test detergent compositions are weighed out and added to the Tergotometer pots. Various detergent compositions as shown in Tables 10-11 were employed under varying water conditions, including 5 grain water (Table 10) and 17 grain water (Table 11).
The detergent systems were agitated for 10 minutes to mix and dissolve in the water sources. The agitation/mixing speed RPM was adjusted to 200. The temperature of the detergent compositions dissolved in water was 60° C., unless indicated otherwise in the Figures/Examples set forth below. The swatches are added quickly to their respective pots in a left to right sequence in order to minimize differences in exposure time to the detergent systems. A wash run is completed for at least 10 minutes. At the end of the run, the swatches are removed from the pots quickly in a left to right sequence using a forceps and are transferred into 500 mL-1 liter of cool water to rinse. After rinsing with cold tap water, excess water from the swatches was removed by squeezing the swatches. The process was repeated with rinsing and squeezing excess water at least 2 more times. The swatches were air dried on a visa napkin or paper towel on the lab bench.
The swatches were then read on the HunterLab Color Quest and calculate % soil removal (i.e. whiteness) from the difference between the initial (before washing) L value and the final L value (after washing). Percent Soil Removal=(L after−L initial)/(96−L initial)*100 is represented as L*.

Gel formation with water = assay type: physicochemical
Source text: The low foam profiles and low viscosity of the glycerin ether ethoxylate solfactants as shown in Examples 5 and 6 were further compared to gel curves of conventional ethoxylated alcohols (e.g. Tomadol surfactants). […]

[4] = 5 gpg water, 50 ppm, 500 ppm sodium hydroxide, 60° C., EMPA 116 (Blood, milk and ink, Cotton)
[5] = 5 gpg, 50 ppm, EMPA 101 (olive oil/carbon black, Cotton)
[6] = 5 gpg, 50 ppm, EMPA 104 (olive oil/carbon black, Cotton blend)
[7] = 5 gpg, 50 ppm, EMPA 106 (mineral oil, Cotton)
[8] = 5 gpg, 50 ppm, EMPA 111 (Pig blood, Cotton)
[9] = 5 gpg, 50 ppm, EMPA 114 (Red wine, Cotton)
[10] = Glycerin Ether Ethoxylate %/Water % 10%/90%

In the case of “2-Ethyl Hexanol Glycerin Ether Ethoxylate (1 mole) [2EHGE (1 EO)]”, the “Cloud Point Data 10% in BDG Soln.” value ([1]; 10% in BDG Soln.) is reported as 59.5 °C, the “OBSERVATIONS (foam stability after pump stopped)” value (from here on “OBSERVATIONS”) [2] is reported as “Unstable - Breaks” and the “Foam Height (in) @ 1 MIN” value [2] is reported as 3 in. The “Foam Height (in) @ 5 MIN” value [2] was 3 in, the “% removal EMPA 116” value [3, 4] was 26% and the “% removal EMPA 101” value [3, 5] was 27%. The “% removal EMPA 104” value [3, 6] was 26%, the “% removal EMPA 106” value [3, 7] was 50.77% and the “% removal EMPA 111” value [3, 8] was 49%. The “% removal EMPA 114” value [3, 9] was 0%, the “% removal EMPA 101” value ([3]; 5 gpg, 100 ppm, EMPA 101) was 29% and the “% removal EMPA 104” value ([3]; 5 gpg, 100 ppm, EMPA 104) was 21%. The “% removal EMPA 106” value ([3]; 5 gpg, 100 ppm, EMPA 106) was 48.73%, the “% removal EMPA 111” value ([3]; 5 gpg, 100 ppm, EMPA 111) was 52% and the “% removal EMPA 114” value ([3]; 5 gpg, 100 ppm, EMPA 114) was −1%. For the same substance, the “% removal EMPA 116” value ([3]; 5 gpg, 100 ppm, EMPA 116) was 27%, the “% removal EMPA 101” value ([3]; 17 gpg, 50 ppm, EMPA 101) was 19% and the “% removal EMPA 104” value ([3]; 17 gpg, 50 ppm, EMPA 104) was 14%. The “% removal EMPA 106” value ([3]; 17 gpg, 50 ppm, EMPA 106) was 6%, the “% removal EMPA 111” value ([3]; 17 gpg, 50 ppm, EMPA 111) was 32% and the “% removal EMPA 114” value ([3]; 17 gpg, 50 ppm, EMPA 114) was 0%. The “% removal EMPA 116” value ([3]; 17 gpg, 50 ppm, EMPA 116) was 17%, the “% removal EMPA 101” value ([3]; 17 gpg, 100 ppm, EMPA 101) was 18% and the “% removal EMPA 104” value ([3]; 17 gpg, 100 ppm, EMPA 104) was 15%. The “% removal EMPA 106” value ([3]; 17 gpg, 100 ppm, EMPA 106) was 7%, the “% removal EMPA 111” value ([3]; 17 gpg, 100 ppm, EMPA 111) was 30% and the “% removal EMPA 114” value ([3]; 17 gpg, 100 ppm, EMPA 114) was −1%. The “% removal EMPA 116” value ([3]; 17 gpg, 100 ppm, EMPA 116) was 17%.
For “2-Ethyl Hexanol Glycerin Ether Ethoxylate (3 moles) [2EHGE (3 EO)]”, the “Cloud Point Data 1% in 10% NaCl” value [1] was 33 °C, the “Cloud Point Data 1% in D.I. H2O” value ([1]; 1% in D.I. H2O) was 50.5 °C and the “OBSERVATIONS” value [2] was “Unstable - Breaks”. For the same substance, the “Foam Height (in) @ 1 MIN” value [2] was 3.5 in, the “Foam Height (in) @ 5 MIN” value [2] was 4 in and the “Gel Formation” value (Gel formation with water; 20%/80%) was “None”. The “Gel Formation” value (Gel formation with water; 30%/70%) was “None”, the “Gel Formation” value (Gel formation with water; 40%/60%) was “None” and the “Gel Formation” value (Gel formation with water; 50%/50%) was “None”. The “Gel Formation” value (Gel formation with water; 60%/40%) was “None”, the “Gel Formation” value (Gel formation with water; 70%/30%) was “None” and the “Gel Formation” value (Gel formation with water; 80%/20%) was “None”. The “Gel Formation” value (Gel formation with water; 90%/10%) was “None”, the “Gel Formation” value (Gel formation with water; [10]) was “None” and the “% removal EMPA 116” value [3, 4] was 34%. The “% removal EMPA 101” value [3, 5] was 45%, the “% removal EMPA 104” value [3, 6] was 49% and the “% removal EMPA 106” value [3, 7] was 60.8%. For the same substance, the “% removal EMPA 111” value [3, 8] was 50%, the “% removal EMPA 114” value [3, 9] was 1% and the “% removal EMPA 101” value ([3]; 5 gpg, 100 ppm, EMPA 101) was 29%. For the same substance, the “% removal EMPA 104” value ([3]; 5 gpg, 100 ppm, EMPA 104) was 25%, the “% removal EMPA 106” value ([3]; 5 gpg, 100 ppm, EMPA 106) was 50.39% and the “% removal EMPA 111” value ([3]; 5 gpg, 100 ppm, EMPA 111) was 48%. The “% removal EMPA 114” value ([3]; 5 gpg, 100 ppm, EMPA 114) was 0%, the “% removal EMPA 116” value ([3]; 5 gpg, 100 ppm, EMPA 116) was 29% and the “% removal EMPA 101” value ([3]; 17 gpg, 50 ppm, EMPA 101) was 17%. The “% removal EMPA 104” value ([3]; 17 gpg, 50 ppm, EMPA 104) was 15%, the “% removal EMPA 106” value ([3]; 17 gpg, 50 ppm, EMPA 106) was 14% and the “% removal EMPA 111” value ([3]; 17 gpg, 50 ppm, EMPA 111) was 29%. For the same substance, the “% removal EMPA 114” value ([3]; 17 gpg, 50 ppm, EMPA 114) was −2%, the “% removal EMPA 116” value ([3]; 17 gpg, 50 ppm, EMPA 116) was 15% and the “% removal EMPA 101” value ([3]; 17 gpg, 100 ppm, EMPA 101) was 19%. For the same substance, the “% removal EMPA 104” value ([3]; 17 gpg, 100 ppm, EMPA 104) was 13%, the “% removal EMPA 106” value ([3]; 17 gpg, 100 ppm, EMPA 106) was 9% and the “% removal EMPA 111” value ([3]; 17 gpg, 100 ppm, EMPA 111) was 27%. For the same substance, the “% removal EMPA 114” value ([3]; 17 gpg, 100 ppm, EMPA 114) was −1% and the “% removal EMPA 116” value ([3]; 17 gpg, 100 ppm, EMPA 116) was 16%.
For “2-Ethyl Hexanol Glycerin Ether Ethoxylate (5 moles) [2EHGE (5 EO)]”, the “Cloud Point Data 1% in 10% NaCl” value [1] was 71.5 °C, the “OBSERVATIONS” value [2] was “Unstable - Breaks” and the “Foam Height (in) @ 1 MIN” value [2] was 4 in. The “Foam Height (in) @ 5 MIN” value [2] was 4 in, the “Gel Formation” value (Gel formation with water; 20%/80%) was “None” and the “Gel Formation” value (Gel formation with water; 30%/70%) was “None”. The “Gel Formation” value (Gel formation with water; 40%/60%) was “None”, the “Gel Formation” value (Gel formation with water; 50%/50%) was “None” and the “Gel Formation” value (Gel formation with water; 60%/40%) was “None”. The “Gel Formation” value (Gel formation with water; 70%/30%) was “None”, the “Gel Formation” value (Gel formation with water; 80%/20%) was “None” and the “Gel Formation” value (Gel formation with water; 90%/10%) was “None”. For the same substance, the “Gel Formation” value (Gel formation with water; [10]) was “None”, the “% removal EMPA 116” value [3, 4] was 30% and the “% removal EMPA 101” value [3, 5] was 40%. For the same substance, the “% removal EMPA 104” value [3, 6] was 48%, the “% removal EMPA 106” value [3, 7] was 59.51% and the “% removal EMPA 111” value [3, 8] was 48%. For the same substance, the “% removal EMPA 114” value [3, 9] was 2%, the “% removal EMPA 101” value ([3]; 5 gpg, 100 ppm, EMPA 101) was 29% and the “% removal EMPA 104” value ([3]; 5 gpg, 100 ppm, EMPA 104) was 23%. For the same substance, the “% removal EMPA 106” value ([3]; 5 gpg, 100 ppm, EMPA 106) was 49.62%, the “% removal EMPA 111” value ([3]; 5 gpg, 100 ppm, EMPA 111) was 45% and the “% removal EMPA 114” value ([3]; 5 gpg, 100 ppm, EMPA 114) was 1%. The “% removal EMPA 116” value ([3]; 5 gpg, 100 ppm, EMPA 116) was 28%, the “% removal EMPA 101” value ([3]; 17 gpg, 50 ppm, EMPA 101) was 19% and the “% removal EMPA 104” value ([3]; 17 gpg, 50 ppm, EMPA 104) was 15%. For the same substance, the “% removal EMPA 106” value ([3]; 17 gpg, 50 ppm, EMPA 106) was 13%, the “% removal EMPA 111” value ([3]; 17 gpg, 50 ppm, EMPA 111) was 30% and the “% removal EMPA 114” value ([3]; 17 gpg, 50 ppm, EMPA 114) was 0%. For the same substance, the “% removal EMPA 116” value ([3]; 17 gpg, 50 ppm, EMPA 116) was 17%, the “% removal EMPA 101” value ([3]; 17 gpg, 100 ppm, EMPA 101) was 21% and the “% removal EMPA 104” value ([3]; 17 gpg, 100 ppm, EMPA 104) was 19%. For the same substance, the “% removal EMPA 106” value ([3]; 17 gpg, 100 ppm, EMPA 106) was 11%, the “% removal EMPA 111” value ([3]; 17 gpg, 100 ppm, EMPA 111) was 41% and the “% removal EMPA 114” value ([3]; 17 gpg, 100 ppm, EMPA 114) was 0%. The “% removal EMPA 116” value ([3]; 17 gpg, 100 ppm, EMPA 116) was 20%.
